Data reported in patent US20260364080A1, “PYRAZOLO-PYRIMIDINONE COMPOUNDS FOR USE IN METHODS OF INHIBITING WEE1 A KINASE” (Acrivon Therapeutics, Inc., priority 2023, published 2026).

Tests used:
[1] = target: T1, recombinant human Wee1A kinase (Homo sapiens, UniProt P30291); assay: Wee1A kinase binding assay (LanthaScreen Eu time-resolved FRET); settings: 30 nM tracer 178, 5 nM Wee1A kinase, 2 nM Eu-labeled antibody; 60 minutes at room temperature; read-out: Wee1A kinase Binding IC50
T1 construct: full length Wee1 kinase was expressed by baculovirus in insect cells; purchased Invitrogen PV3817; host or cells: insect cells (baculovirus)
Summary of the method: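 Full-length, baculovirus-expressed GST-tagged Wee1A (5 nM) was mixed with 2 nM Eu-anti-GST antibody, 30 nM kinase tracer 178 and compound (1% DMSO). Buffer was 50 mM HEPES pH 7.5, 10 mM MgCl2, 1 mM EGTA, 0.01% Brij-35, incubated 60 min at room temperature. TR-FRET 665/615 nm emission ratios from duplicates were curve-fitted.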

[2] = target: T2, Myt1 kinase (recombinant PMYT-1) (Homo sapiens, UniProt Q99640); assay: Myt1 kinase binding assay (LanthaScreen Eu Kinase Binding Assay); settings: 3 nM tracer 178, 2.5 nM PMYT-1, 1 nM Eu-labeled antibody; read-out: Myt1 kinase Binding IC50
T2 construct: full length PMYT-1 was expressed by baculovirus in insect cells; purchased Invitrogen A30984; host or cells: insect cells (baculovirus)
T2 sequence (Q99640 1-499): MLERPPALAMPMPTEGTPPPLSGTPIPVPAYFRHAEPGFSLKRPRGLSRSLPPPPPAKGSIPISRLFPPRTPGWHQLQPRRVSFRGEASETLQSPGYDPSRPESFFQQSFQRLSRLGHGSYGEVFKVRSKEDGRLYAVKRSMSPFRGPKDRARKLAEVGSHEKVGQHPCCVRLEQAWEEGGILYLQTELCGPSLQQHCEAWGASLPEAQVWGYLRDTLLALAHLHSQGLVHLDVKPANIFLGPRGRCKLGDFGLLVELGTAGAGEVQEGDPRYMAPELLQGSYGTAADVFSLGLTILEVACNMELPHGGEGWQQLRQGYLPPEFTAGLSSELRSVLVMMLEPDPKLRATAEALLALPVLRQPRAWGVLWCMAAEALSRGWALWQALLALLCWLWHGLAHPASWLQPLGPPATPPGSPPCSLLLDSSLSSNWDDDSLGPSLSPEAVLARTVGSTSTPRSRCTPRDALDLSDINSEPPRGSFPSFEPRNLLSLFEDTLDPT
Summary of the method: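 Compound binding to Myt1 kinase was assessed using the LanthaScreen Eu Kinase Binding Assay. This europium-based binding format was applied to quantify how strongly each compound bound to the Myt1 enzyme, and the binding affinity was reported for each compound as an IC50 value.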

[3] = target: T3, Wee1A kinase (CDK1 Tyr15 phosphorylation in ACHN renal cell carcinoma cells) (Homo sapiens, UniProt P30291); assay: High-content imaging of pCdk1 Y15, Wee1A kinase target engagement in ACHN cells; type: cell-based; settings: 4 h treatment, nuclear positivity for pCdk1 Y15 vs DMSO control, read-out: CDK1 Tyr15 Phosphorylation EC50
T3 construct: pCDK1 Tyr15 immunofluorescence read-out
Summary of the method: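 EC50 values come from the per-well fraction of cells with nuclear pCdk1 Y15 staining, normalised to DMSO control, by automated immunofluorescence imaging. Cells were ACHN renal carcinoma, treated 4 h with compound at 7–5,000 nM or 0.3–200 nM.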

T3 sequence (P30291 whole entry): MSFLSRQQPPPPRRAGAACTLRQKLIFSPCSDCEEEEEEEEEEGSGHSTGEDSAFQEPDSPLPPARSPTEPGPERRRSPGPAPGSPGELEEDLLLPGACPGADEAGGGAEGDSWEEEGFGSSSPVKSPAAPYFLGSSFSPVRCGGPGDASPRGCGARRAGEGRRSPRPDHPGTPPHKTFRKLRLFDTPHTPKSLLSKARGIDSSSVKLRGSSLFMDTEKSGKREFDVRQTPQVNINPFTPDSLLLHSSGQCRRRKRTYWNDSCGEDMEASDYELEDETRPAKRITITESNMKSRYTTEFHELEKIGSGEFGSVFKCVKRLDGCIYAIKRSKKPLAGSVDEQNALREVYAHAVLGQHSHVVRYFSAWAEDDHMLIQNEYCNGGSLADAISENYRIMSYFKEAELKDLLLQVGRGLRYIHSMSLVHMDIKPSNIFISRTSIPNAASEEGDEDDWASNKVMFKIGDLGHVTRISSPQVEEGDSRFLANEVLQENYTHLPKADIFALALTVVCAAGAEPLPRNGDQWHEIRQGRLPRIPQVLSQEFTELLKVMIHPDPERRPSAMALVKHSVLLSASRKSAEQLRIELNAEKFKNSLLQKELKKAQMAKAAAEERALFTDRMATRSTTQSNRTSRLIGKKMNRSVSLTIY
T1 sequence (P30291 whole entry): as above

C=CCn1c(=O)c2cnc(Nc3ccc(C)nc3)nc2n1-c1cccc(OC2CCNCC2)n1 [Compound 237, 2-allyl-6-((6-methylpyridin-3-yl)amino)-1-(6-(piperidin-4-yloxy)pyridin-2-yl)-1,2-dihydro-3H-pyrazolo[3,4-d]pyrimidin-3-one] gave an IC50 [1] of under 10 nM, an IC50 [2] of 20 to 100 nM and an EC50 [3] of 100 to 500 nM.
In the case of C=CCn1c(=O)c2cnc(Nc3ccc4nccnc4c3)nc2n1-c1cccc(OC2CCNCC2)n1 [Compound 239, 2-allyl-1-[6-(4-piperidyloxy)-2-pyridyl]-6-(6-quinoxalinylamino)-1,2-dihydro-3H-1,2,5,7-tetraazainden-3-one], the IC50 [1] is reported as under 10 nM, the IC50 [2] is reported as under 20 nM and the EC50 [3] is reported as 100 to 500 nM.
C=CCn1c(=O)c2cnc(Nc3ccc4ncnn4c3)nc2n1-c1cccc(OC2CCNCC2)n1 [Compound 245, 2-allyl-6-(1,3,3a-triaza-5-indenylamino)-1-[6-(4-piperidyloxy)-2-pyridyl]-1,2-dihydro-3H-1,2,5,7-tetraazainden-3-one] showed an IC50 [1] of under 10 nM, an IC50 [2] of 20 to 100 nM and an EC50 [3] of over 1000 nM.
Molecule C=CCn1c(=O)c2cnc(Nc3ccc(F)cc3)nc2n1-c1ccnc(OC2CCNCC2)n1 [Compound 247, 2-allyl-6-((4-fluorophenyl)amino)-1-(2-((piperidin-4-yl)oxy)pyrimidin-4-yl)-1,2-dihydro-3H-pyrazolo[3,4-d]pyrimidin-3-one] has an IC50 [1] of under 10 nM, an IC50 [2] of under 20 nM and an EC50 [3] of 100 to 500 nM.
In the case of C=CCn1c(=O)c2cnc(Nc3ccc4ncnn4c3)nc2n1-c1cccc(OC2CCN(C)CC2)n1 [Compound 249, 2-allyl-6-(1,3,3a-triaza-5-indenylamino)-1-[6-(1-methyl-4-piperidyloxy)-2-pyridyl]-1,2-dihydro-3H-1,2,5,7-tetraazainden-3-one], the IC50 [1] is reported as under 10 nM, the IC50 [2] is reported as 20 to 100 nM and the EC50 [3] is reported as 100 to 500 nM.
Work on C=CCn1c(=O)c2cnc(Nc3ccc(N4CCOCC4)c(C)c3)nc2n1-c1cccc(OC2CCNCC2)n1 [Compound 262, 2-allyl-6-(4-morpholino-3-toluidino)-1-[6-(4-piperidyloxy)-2-pyridyl]-1,2-dihydro-3H-1,2,5,7-tetraazainden-3-one] yielded an IC50 [1] of under 10 nM, an IC50 [2] of 20 to 100 nM and an EC50 [3] of under 100 nM.
In the case of C=CCn1c(=O)c2cnc(Nc3ccnc(OC)c3)nc2n1-c1cccc(OC2CCN(C)CC2)n1 [Compound 263, 2-allyl-6-(2-methoxy-4-pyridylamino)-1-[6-(1-methyl-4-piperidyloxy)-2-pyridyl]-1,2-dihydro-3H-1,2,5,7-tetraazainden-3-one], the IC50 [1] is reported as under 10 nM, the IC50 [2] is reported as under 20 nM and the EC50 [3] is reported as under 100 nM.
For C=CCn1c(=O)c2cnc(Nc3ccc4nc(C)sc4c3)nc2n1-c1cccc(OC2CCNCC2)n1 [Compound 264, 2-allyl-6-(2-methyl-1,3-benzothiazol-6-ylamino)-1-[6-(4-piperidyloxy)-2-pyridyl]-1,2-dihydro-3H-1,2,5,7-tetraazainden-3-one], the IC50 [1] was under 10 nM, the IC50 [2] was under 20 nM and the EC50 [3] was under 100 nM.
With CCn1c(=O)c2cnc(Nc3ccc(Br)cc3)nc2n1-c1cccc(OC2CCNCC2)n1 [Compound 267, 6-(p-bromophenylamino)-2-ethyl-1-[6-(4-piperidyloxy)-2-pyridyl]-1,2-dihydro-3H-1,2,5,7-tetraazainden-3-one] the IC50 [1] was under 10 nM, the IC50 [2] was 20 to 100 nM and the EC50 [3] was 100 to 500 nM.
Work on CCn1c(=O)c2cnc(Nc3ccc(Br)cc3)nc2n1-c1cccc(OC2CCN(C)CC2)n1 [Compound 268, 6-(p-bromophenylamino)-2-ethyl-1-[6-(1-methyl-4-piperidyloxy)-2-pyridyl]-1,2-dihydro-3H-1,2,5,7-tetraazainden-3-one] yielded an IC50 [1] of under 10 nM, an IC50 [2] of under 20 nM and an EC50 [3] of 100 to 500 nM.
Work on C=CCn1c(=O)c2cnc(Nc3cccc(Br)c3)nc2n1-c1cccc(OC2CCN(C)CC2)n1 [Compound 269, 2-allyl-6-(m-bromophenylamino)-1-[6-(1-methyl-4-piperidyloxy)-2-pyridyl]-1,2-dihydro-3H-1,2,5,7-tetraazainden-3-one] yielded an IC50 [1] of under 10 nM, an IC50 [2] of under 20 nM and an EC50 [3] of 100 to 500 nM.
In the case of CCn1c(=O)c2cnc(Nc3ccc(-c4cnn(C)c4)cc3)nc2n1-c1cccc(OC2CCNCC2)n1 [Compound 271, 2-ethyl-6-[p-(1-methyl-4-pyrazolyl)phenylamino]-1-[6-(4-piperidyloxy)-2-pyridyl]-1,2-dihydro-3H-1,2,5,7-tetraazainden-3-one], the IC50 [1] is reported as under 10 nM, the IC50 [2] is reported as under 20 nM and the EC50 [3] is reported as 100 to 500 nM.
CCn1c(=O)c2cnc(Nc3ccc(-c4ccccc4)cc3)nc2n1-c1cccc(OC2CCNCC2)n1 [Compound 272, 6-(4-biphenylylamino)-2-ethyl-1-[6-(4-piperidyloxy)-2-pyridyl]-1,2-dihydro-3H-1,2,5,7-tetraazainden-3-one] showed an IC50 [1] of under 10 nM, an IC50 [2] of under 20 nM and an EC50 [3] of 100 to 500 nM.
C=CCn1c(=O)c2cnc(Nc3ccc4nn(C)cc4c3)nc2n1-c1cccc(OC2CCNCC2)n1 [Compound 274, 2-allyl-6-((2-methyl-2H-indazol-5-yl)amino)-1-(6-(piperidin-4-yloxy)pyridin-2-yl)-1,2-dihydro-3H-pyrazolo[3,4-d]pyrimidin-3-one] showed an IC50 [1] of under 10 nM, an IC50 [2] of under 20 nM and an EC50 [3] of 100 to 500 nM.
Work on C=CCn1c(=O)c2cnc(Nc3ccc4[nH]nc(Cl)c4c3)nc2n1-c1cccc(OC2CCNCC2)n1 [Compound 275, 2-allyl-6-((3-chloro-1H-indazol-5-yl)amino)-1-(6-(piperidin-4-yloxy)pyridin-2-yl)-1,2-dihydro-3H-pyrazolo[3,4-d]pyrimidin-3-one] yielded an IC50 [1] of under 10 nM, an IC50 [2] of 20 to 100 nM and an EC50 [3] of over 1000 nM.
C=CCn1c(=O)c2cnc(Nc3ccc4nn(CC)cc4c3)nc2n1-c1cccc(OC2CCNCC2)n1 [Compound 276] gave an IC50 [1] of under 10 nM, an IC50 [2] of 20 to 100 nM and an EC50 [3] of under 100 nM.
In the case of CCn1c(=O)c2cnc(Nc3ccc(-c4ccccc4)cc3)nc2n1-c1cccc(OC2CCN(C)CC2)n1 [Compound 284, 6-(4-biphenylylamino)-2-ethyl-1-[6-(1-methyl-4-piperidyloxy)-2-pyridyl]-1,2-dihydro-3H-1,2,5,7-tetraazainden-3-one], the IC50 [1] is reported as under 10 nM, the IC50 [2] is reported as under 20 nM and the EC50 [3] is reported as 100 to 500 nM.
Molecule CCn1c(=O)c2cnc(Nc3ccc4c(cnn4C)c3)nc2n1-c1cccc(NC2CCNCC2)n1 [Compound 285, 2-ethyl-6-[(1-methyl-1H-indazol-5-yl)amino]-1-{6-[(piperidin-4-yl)amino]pyridin-2-yl}-1H,2H,3H-pyrazolo[3,4-d]pyrimidin-3-one] has an IC50 [1] of under 10 nM, an IC50 [2] of 100 to 500 nM and an EC50 [3] of over 1000 nM.
In the case of CCn1c(=O)c2cnc(Nc3ccc(F)cc3)nc2n1-c1cccc(OC2CCNCC2)n1 [Compound 297, 2-ethyl-6-(p-fluorophenylamino)-1-[6-(4-piperidyloxy)-2-pyridyl]-1,2-dihydro-3H-1,2,5,7-tetraazainden-3-one], the IC50 [1] is reported as under 10 nM, the IC50 [2] is reported as 100 to 500 nM and the EC50 [3] is reported as 100 to 500 nM.
Molecule C=CCn1c(=O)c2cnc(Nc3ccc(C#N)cc3)nc2n1-c1cccc(OC2CCNCC2)n1 [Compound 300, p-{2-allyl-3-oxo-1-[6-(4-piperidyloxy)-2-pyridyl]-1,2-dihydro-3H-1,2,5,7-tetraazainden-6-ylamino}benzonitrile] has an IC50 [1] of under 10 nM, an IC50 [2] of 20 to 100 nM and an EC50 [3] of 100 to 500 nM.
CCn1c(=O)c2cnc(Nc3ccc(C#N)cc3)nc2n1-c1cccc(OC2CCNCC2)n1 [Compound 302, p-{2-ethyl-3-oxo-1-[6-(4-piperidyloxy)-2-pyridyl]-1,2-dihydro-3H-1,2,5,7-tetraazainden-6-ylamino}benzonitrile] was tested, and the IC50 [1] was under 10 nM, the IC50 [2] was 20 to 100 nM and the EC50 [3] was 500 to 1000 nM.
In the case of C=CCn1c(=O)c2cnc(Nc3ccc(F)cc3)nc2n1-c1cccc(OC2CCCNCC2)n1 (stereo not drawn) [Compound 315, 2-allyl-1-[6-(4-azepanyloxy)-2-pyridyl]-6-(p-fluorophenylamino)-1,2-dihydro-3H-1,2,5,7-tetraazainden-3-one], the IC50 [1] is reported as under 10 nM, the IC50 [2] is reported as 20 to 100 nM and the EC50 [3] is reported as 500 to 1000 nM.
